Experimental data as given in ChEMBL document CHEMBL4622868, “Design and synthesis of amphiphilic 2-hydroxybenzylphosphonium salts with antimicrobial and antitumor dual action” (Bioorg Med Chem Lett, 2020).
Active and inactive are the calls of the source. The calls are words filed in the database; no cut-off is given here.

Legend:
[1] = test system: Staphylococcus aureus; experiment: Antibacterial activity against Staphylococcus aureus ATCC 209p; assay type: functional
[2] = test system: Staphylococcus aureus; experiment: Bactericidal activity against Staphylococcus aureus ATCC 209p; assay type: functional
[3] = test system: Bacillus cereus; experiment: Antibacterial activity against Bacillus cereus; assay type: functional
[4] = test system: Bacillus cereus; experiment: Bactericidal activity against Bacillus cereus; assay type: functional
[5] = test system: Trichophyton mentagrophytes; experiment: Antifungal activity against Trichophyton mentagrophytes; assay type: functional
[6] = test system: Trichophyton mentagrophytes; experiment: Fungicidal activity against Trichophyton mentagrophytes; assay type: functional
[7] = test system: Candida albicans; experiment: Antifungal activity against Candida albicans; assay type: functional
[8] = test system: Candida albicans; experiment: Fungicidal activity against Candida albicans; assay type: functional
[9] = test system: Staphylococcus aureus; experiment: Antibacterial activity against clinical isolate amoxicillin and ciprofloxacin resistance Staphylococcus aureus; assay type: functional
[10] = test system: Staphylococcus aureus; experiment: Bactericidal activity against clinical isolate amoxicillin and ciprofloxacin resistance Staphylococcus aureus; assay type: functional
[11] = test system: Staphylococcus aureus; experiment: Antibacterial activity against clinical isolate amoxicillin resistance Staphylococcus aureus; assay type: functional
[12] = test system: Staphylococcus aureus; experiment: Bactericidal activity against clinical isolate amoxicillin resistance Staphylococcus aureus; assay type: functional
[13] = Biosurfactant activity assessed as critical micelle concentration of compound by tensiometry analysis; assay type: functional
[14] = Biosurfactant activity assessed as Critical micelle concentration of compound by conductometry analysis; assay type: physicochemical
[15] = Hemolytic activity against RBC (unknown origin) at 480 uM; assay type: ADME, cell-based, Erythrocyte; conditions: red blood cells (erythrocytes); read-out: Activity
[16] = Hemolytic activity against RBC (unknown origin) at 240 uM; assay type: ADME, cell-based, Erythrocyte; conditions: red blood cells (erythrocytes); read-out: Activity
[17] = Hemolytic activity against RBC (unknown origin) at 120 uM; assay type: ADME, cell-based, Erythrocyte; conditions: red blood cells (erythrocytes); read-out: Activity
[18] = Hemolytic activity against RBC (unknown origin) at 60 uM; assay type: ADME, cell-based, Erythrocyte; conditions: red blood cells (erythrocytes); read-out: Activity
[19] = Hemolytic activity against RBC (unknown origin) at 40 uM; assay type: ADME, cell-based, Erythrocyte; conditions: red blood cells (erythrocytes); read-out: Activity
[20] = Hemolytic activity against RBC (unknown origin) at 20 uM; assay type: ADME, cell-based, Erythrocyte; conditions: red blood cells (erythrocytes); read-out: Activity
[21] = Hemolytic activity against RBC (unknown origin) at 10 uM; assay type: ADME, cell-based, Erythrocyte; conditions: red blood cells (erythrocytes); read-out: Activity
[22] = Hemolytic activity against RBC (unknown origin) at 5 uM; assay type: ADME, cell-based, Erythrocyte; conditions: red blood cells (erythrocytes); read-out: Activity
[23] = Hemolytic activity against RBC (unknown origin) at 1 uM; assay type: ADME, cell-based, Erythrocyte; conditions: red blood cells (erythrocytes); read-out: Activity
[24] = test system: M-HeLa; experiment: Cytotoxicity against human M-HeLa cells; assay type: functional, cell-based
[25] = test system: MCF7; experiment: Cytotoxicity against human MCF7 cells; assay type: functional, cell-based
[26] = test system: HepG2; experiment: Cytotoxicity against human HepG2 cells; assay type: functional, cell-based; conditions: read-out: IC50
[27] = test system: PANC-1; experiment: Cytotoxicity against human PANC1 cells; assay type: functional, cell-based
[28] = Cytotoxicity against human Chang cells; assay type: cell-based
[29] = Selectivity index, ratio of IC50 for human Chang cells to IC50 for human M-HeLa cells
[30] = Selectivity index, ratio of IC50 for human Chang cells to IC50 for human MCF7 cells
[31] = Selectivity index, ratio of IC50 for human Chang cells to IC50 for human HepG2 cells
[32] = Selectivity index, ratio of IC50 for human Chang cells to IC50 for human PANC1 cells
[33] = test system: Staphylococcus aureus; experiment: Antibacterial activity against Staphylococcus aureus ATCC 209p assessed as increase in crystal violet uptake at 2 uM incubated for 30 mins (reference value: 1.8 %); assay type: functional
[34] = test system: M-HeLa; experiment: Induction of apoptosis in human M-HeLa cells assessed as viable cells at 3 uM incubated for 24 hrs by Annexin-V FITC and propidium iodide staining based flow cytometry analysis (reference value: 90.48 %); assay type: functional; conditions: read-out: Activity
[35] = test system: M-HeLa; experiment: Induction of apoptosis in human M-HeLa cells assessed as early apoptotic cells at 3 uM incubated for 24 hrs by Annexin-V FITC and propidium iodide staining based flow cytometry analysis (reference value: 7.85 %); assay type: functional
[36] = test system: M-HeLa; experiment: Induction of apoptosis in human M-HeLa cells assessed as late apoptotic cells at 3 uM incubated for 24 hrs by Annexin-V FITC and propidium iodide staining based flow cytometry analysis (reference value: 0.36 %); assay type: functional
[37] = test system: M-HeLa; experiment: Induction of apoptosis in human M-HeLa cells assessed as necrotic cells at 3 uM incubated for 24 hrs by Annexin-V FITC and propidium iodide staining based flow cytometry analysis (reference value: 1.32 %); assay type: functional
[38] = test system: M-HeLa; experiment: Induction of apoptosis in human M-HeLa cells assessed as viable cells at 6 uM incubated for 24 hrs by Annexin-V FITC and propidium iodide staining based flow cytometry analysis (reference value: 90.48 %); assay type: functional; conditions: read-out: Activity
[39] = test system: M-HeLa; experiment: Induction of apoptosis in human M-HeLa cells assessed as early apoptotic cells at 6 uM incubated for 24 hrs by Annexin-V FITC and propidium iodide staining based flow cytometry analysis (reference value: 7.85 %); assay type: functional
[40] = test system: M-HeLa; experiment: Induction of apoptosis in human M-HeLa cells assessed as late apoptotic cells at 6 uM incubated for 24 hrs by Annexin-V FITC and propidium iodide staining based flow cytometry analysis (reference value: 0.36 %); assay type: functional
[41] = test system: M-HeLa; experiment: Induction of apoptosis in human M-HeLa cells assessed as necrotic cells at 6 uM incubated for 24 hrs by Annexin-V FITC and propidium iodide staining based flow cytometry analysis (reference value: 1.32 %); assay type: functional
[42] = test system: M-HeLa; experiment: Induction of apoptosis in human M-HeLa cells assessed as early apoptotic cells incubated for 24 hrs by Annexin-V FITC and propidium iodide staining based flow cytometry analysis; assay type: functional, cell-based
[43] = test system: M-HeLa; experiment: Induction of mitochondrial membrane potential loss in human M-HeLa cells assessed as decrease in red fluorescence intensity at 3 uM by JC10 staining based flow cytometry analysis (reference value: 99.70 %); assay type: functional; parameters: scale not given: the % may be the effect or the level left
[44] = test system: M-HeLa; experiment: Induction of mitochondrial membrane potential loss in human M-HeLa cells assessed as decrease in red fluorescence intensity at 6 uM by JC10 staining based flow cytometry analysis (reference value: 99.70 %); assay type: functional; parameters: scale not given: the % may be the effect or the level left
[45] = test system: M-HeLa; experiment: Induction of mitochondrial membrane potential loss in human M-HeLa cells assessed as decrease in red fluorescence intensity by JC10 staining based flow cytometry analysis; assay type: functional, cell-based

Work on `CCCCCCCCCCCCCCCCCC[P+](Cc1ccccc1O)(c1ccccc1)c1ccccc1.[Cl-]` yielded an MIC [1] of 108 µM, an MBC [2] of 215 µM and an MIC [3] of 108 µM. For the same compound, the MBC [4] was 215 µM, the MIC [5] was “inactive” and the MFC [6] was “inactive”. The MIC [7] was “inactive”, the MFC [8] was “inactive” and the MIC [9] was “inactive”. The MBC [10] was “inactive”, the MIC [11] was “inactive” and the MBC [12] was “inactive”. The CMC [13] was 0.04 mM, the CMC [14] was 0.04 mM and the hemolysis at 480 µM [15] was 100%. For the same compound, the hemolysis at 240 µM [16] was 100%, the hemolysis at 120 µM [17] was 15.6% and the hemolysis at 60 µM [18] was 2.5%. It also gave a hemolysis at 40 µM [19] of 1.4%, a hemolysis at 20 µM [20] of 1.2% and a hemolysis at 10 µM [21] of 0%. For the same compound, the hemolysis at 5 µM [22] was 0%, the hemolysis at 1 µM [23] was 0% and the IC50 [24] was 68 µM. It also gave an IC50 [25] of 49 µM, an IC50 [26] of 73 µM and an IC50 [27] of 65 µM. The IC50 [28] was 69 µM, the “Ratio IC50” value [29] was 1 and the “Ratio IC50” value [30] was 1.4. For the same compound, the “Ratio IC50” value [31] was 0.94 and the “Ratio IC50” value [32] was 1.1.
In the case of `CCCCCCCCCC[P+](Cc1ccccc1O)(c1ccccc1)c1ccccc1.[Cl-]`, the MIC [1] is reported as 1 µM, the MBC [2] is reported as 4.1 µM and the MIC [3] is reported as 1.9 µM. The MBC [4] was 4.1 µM, the MIC [5] was 16.6 µM and the MFC [6] was 16.6 µM. The MIC [7] was 16.6 µM, the MFC [8] was 16.6 µM and the MIC [9] was 8.2 µM. For the same compound, the MBC [10] was 32.8 µM, the MIC [11] was 8.2 µM and the MBC [12] was 16.4 µM. The Activity [33] was 24 - 82.7%, the hemolysis at 480 µM [15] was 16.4% and the hemolysis at 240 µM [16] was 9.6%. The hemolysis at 120 µM [17] was 5.9%, the hemolysis at 60 µM [18] was 2.8% and the hemolysis at 40 µM [19] was 2.3%. For the same compound, the hemolysis at 20 µM [20] was 1.3%, the hemolysis at 10 µM [21] was 0.8% and the hemolysis at 5 µM [22] was 0%. The hemolysis at 1 µM [23] was 0%, the IC50 [24] was 3.4 µM and the IC50 [25] was 13.2 µM. For the same compound, the IC50 [26] was 12.3 µM, the IC50 [27] was 26.3 µM and the IC50 [28] was 45.7 µM. The “Ratio IC50” value [29] was 13.4, the “Ratio IC50” value [30] was 3.5 and the “Ratio IC50” value [31] was 3.7. The “Ratio IC50” value [32] was 1.7.
Compound `CCCCCCCCCCCC[P+](Cc1ccccc1O)(c1ccccc1)c1ccccc1.[Cl-]` has an MIC [1] of 1 µM, an MBC [2] of 2 µM and an MIC [3] of 0.9 µM. It also gave an MBC [4] of 3.8 µM, an MIC [5] of 7.8 µM and an MFC [6] of 7.8 µM. It also gave an MIC [7] of 7.8 µM, an MFC [8] of 7.8 µM and an MIC [9] of 2 µM. For the same compound, the MBC [10] was 8 µM, the MIC [11] was 4 µM and the MBC [12] was 16 µM. The Activity [33] was 24 - 82.7%, the hemolysis at 480 µM [15] was 65.4% and the hemolysis at 240 µM [16] was 42.3%. It also gave a hemolysis at 120 µM [17] of 21.2%, a hemolysis at 60 µM [18] of 12.2% and a hemolysis at 40 µM [19] of 2.9%. The hemolysis at 20 µM [20] was 1.8%, the hemolysis at 10 µM [21] was 1.3% and the hemolysis at 5 µM [22] was 0.9%. It also gave a hemolysis at 1 µM [23] of 0%, an IC50 [24] of 2.6 µM and an IC50 [25] of 7.2 µM. The IC50 [26] was 9.8 µM, the IC50 [27] was 25.3 µM and the IC50 [28] was 42.8 µM. For the same compound, the “Ratio IC50” value [29] was 16.4, the “Ratio IC50” value [30] was 5.9 and the “Ratio IC50” value [31] was 4.5. For the same compound, the “Ratio IC50” value [32] was 1.7, the viability at 3 µM [34] was 46.4% and the Activity [35] was 39.26%. For the same compound, the Activity [36] was 9.78%, the Activity [37] was 4.57% and the viability at 6 µM [38] was 33.4%. It also gave an Activity [39] of 53.31%, an Activity [40] of 10.89% and an Activity [41] of 2.42%. The Activity [42] was “Dose-dependent effect”, the Activity [43] was 76.61% and the Activity [44] was 39.17%. For the same compound, the Activity [45] was “Dose-dependent effect”.
